Measured values taken from the NIST ThermoML archive (doi:10.1021/je050050p).

Test: xn = mol fraction of the nth substance listed
Conditions: Liquid, Vibrating tube method

CN(C)C=O [dimethylformamide] + O=C=O
Conditions | mass density [kg/m3]
352.87 K, 13027 kPa, x2 = 0.4268 | 908.06
352.87 K, 13995 kPa, x2 = 0.4268 | 909.43
352.87 K, 14004 kPa, x2 = 0.2876 | 910.39
352.87 K, 15002 kPa, x2 = 0.4268 | 910.84
352.87 K, 15013 kPa, x2 = 0.2876 | 911.48
352.87 K, 16013 kPa, x2 = 0.2876 | 912.56
352.87 K, 16029 kPa, x2 = 0.4268 | 912.27
352.87 K, 17030 kPa, x2 = 0.4268 | 913.63
352.87 K, 17044 kPa, x2 = 0.2876 | 913.64
352.87 K, 18010 kPa, x2 = 0.4268 | 914.96
352.87 K, 18012 kPa, x2 = 0.2876 | 914.66
352.87 K, 19003 kPa, x2 = 0.4268 | 916.29
352.87 K, 19015 kPa, x2 = 0.2876 | 915.7
352.87 K, 20024 kPa, x2 = 0.2876 | 916.74
352.87 K, 20032 kPa, x2 = 0.4268 | 917.62
352.87 K, 21004 kPa, x2 = 0.2876 | 917.74
352.87 K, 21047 kPa, x2 = 0.4268 | 918.93
352.87 K, 22005 kPa, x2 = 0.4268 | 920.15
352.87 K, 22030 kPa, x2 = 0.2876 | 918.79
352.87 K, 23001 kPa, x2 = 0.4268 | 921.41
352.87 K, 23027 kPa, x2 = 0.2876 | 919.77
352.87 K, 24014 kPa, x2 = 0.4268 | 922.68
352.87 K, 24021 kPa, x2 = 0.2876 | 920.77
352.87 K, 25022 kPa, x2 = 0.2876 | 921.74
352.87 K, 25024 kPa, x2 = 0.4268 | 923.93
362.68 K, 13997 kPa, x2 = 0.6235 | 842.98
362.68 K, 15019 kPa, x2 = 0.6235 | 847.62
362.68 K, 16021 kPa, x2 = 0.6235 | 851.83
362.68 K, 16992 kPa, x2 = 0.6235 | 855.82
362.68 K, 18022 kPa, x2 = 0.6235 | 859.78
362.68 K, 19000 kPa, x2 = 0.6235 | 863.4
362.68 K, 20047 kPa, x2 = 0.6235 | 867.1
362.68 K, 21057 kPa, x2 = 0.6235 | 870.49
362.68 K, 22005 kPa, x2 = 0.6235 | 873.58
362.68 K, 22981 kPa, x2 = 0.6235 | 876.69
362.68 K, 24005 kPa, x2 = 0.6235 | 879.78
362.68 K, 24998 kPa, x2 = 0.6235 | 882.71
362.73 K, 18005 kPa, x2 = 0.9311 | 641.86
362.73 K, 19024 kPa, x2 = 0.9311 | 662.81
362.73 K, 20021 kPa, x2 = 0.9311 | 680.44
362.73 K, 21028 kPa, x2 = 0.9311 | 696.02
362.73 K, 22008 kPa, x2 = 0.9311 | 709.54
362.73 K, 23017 kPa, x2 = 0.9311 | 722.12
362.73 K, 24029 kPa, x2 = 0.9311 | 733.65
362.73 K, 25019 kPa, x2 = 0.9311 | 744.01
362.75 K, 8032 kPa, x2 = 0.2876 | 891.2
362.75 K, 9018 kPa, x2 = 0.2876 | 892.47
362.75 K, 9986 kPa, x2 = 0.2876 | 893.65
362.75 K, 10994 kPa, x2 = 0.2876 | 894.89
362.75 K, 11002 kPa, x2 = 0.4268 | 890.57
362.75 K, 12000 kPa, x2 = 0.2876 | 896.09
362.75 K, 12008 kPa, x2 = 0.4268 | 892.17
362.75 K, 13010 kPa, x2 = 0.4268 | 893.74
362.75 K, 13037 kPa, x2 = 0.2876 | 897.35
362.75 K, 14000 kPa, x2 = 0.4268 | 895.32
362.75 K, 14023 kPa, x2 = 0.2876 | 898.48
362.75 K, 15027 kPa, x2 = 0.4268 | 896.84
362.75 K, 15039 kPa, x2 = 0.2876 | 899.66
362.75 K, 16011 kPa, x2 = 0.2876 | 900.77
362.75 K, 16015 kPa, x2 = 0.4268 | 898.33
362.75 K, 17017 kPa, x2 = 0.4268 | 899.81
362.75 K, 17019 kPa, x2 = 0.2876 | 901.92
362.75 K, 18012 kPa, x2 = 0.2876 | 903.04
362.75 K, 18013 kPa, x2 = 0.4268 | 901.24
362.75 K, 19006 kPa, x2 = 0.2876 | 904.14
362.75 K, 19024 kPa, x2 = 0.4268 | 902.72
362.75 K, 20028 kPa, x2 = 0.4268 | 904.14
362.75 K, 20035 kPa, x2 = 0.2876 | 905.27
362.75 K, 20994 kPa, x2 = 0.2876 | 906.3
362.75 K, 21039 kPa, x2 = 0.4268 | 905.51
362.75 K, 22014 kPa, x2 = 0.4268 | 906.89
362.75 K, 22029 kPa, x2 = 0.2876 | 907.43
362.75 K, 23004 kPa, x2 = 0.2876 | 908.45
362.75 K, 23027 kPa, x2 = 0.4268 | 908.24
362.75 K, 24034 kPa, x2 = 0.2876 | 909.57
362.75 K, 25002 kPa, x2 = 0.2876 | 910.55
362.79 K, 18033 kPa, x2 = 0.8091 | 777.33
362.79 K, 19005 kPa, x2 = 0.8091 | 784.9
362.79 K, 20003 kPa, x2 = 0.8091 | 792.49
362.79 K, 21014 kPa, x2 = 0.8091 | 799.75
362.79 K, 22017 kPa, x2 = 0.8091 | 806.5
362.79 K, 23043 kPa, x2 = 0.8091 | 813.1
362.79 K, 24052 kPa, x2 = 0.8091 | 819.28
362.79 K, 25083 kPa, x2 = 0.8091 | 825.05
